Laboratory results: ChEMBL document CHEMBL1147742, “Design and synthesis of photoaffinity-labeling ligands of the L-prolyl-L-leucylglycinamide binding site involved in the allosteric modulation of the dopamine receptor” (J Med Chem, 2006)
Active and inactive are the calls of the source. The rule behind the calls is not given here. Where a SMILES comes first, the peptide text is derived from it.

Each molecule was assayed against D(2) dopamine receptor (Bos taurus) (UniProt P20288) (assay: Stimulation of [3H]NPA binding to dopamine D2 receptor from bovine striatal membranes in presence of photoaffinity-labeling agents). Conditions: not given.
Sequence of D(2) dopamine receptor (Bos taurus) (P20288 whole entry): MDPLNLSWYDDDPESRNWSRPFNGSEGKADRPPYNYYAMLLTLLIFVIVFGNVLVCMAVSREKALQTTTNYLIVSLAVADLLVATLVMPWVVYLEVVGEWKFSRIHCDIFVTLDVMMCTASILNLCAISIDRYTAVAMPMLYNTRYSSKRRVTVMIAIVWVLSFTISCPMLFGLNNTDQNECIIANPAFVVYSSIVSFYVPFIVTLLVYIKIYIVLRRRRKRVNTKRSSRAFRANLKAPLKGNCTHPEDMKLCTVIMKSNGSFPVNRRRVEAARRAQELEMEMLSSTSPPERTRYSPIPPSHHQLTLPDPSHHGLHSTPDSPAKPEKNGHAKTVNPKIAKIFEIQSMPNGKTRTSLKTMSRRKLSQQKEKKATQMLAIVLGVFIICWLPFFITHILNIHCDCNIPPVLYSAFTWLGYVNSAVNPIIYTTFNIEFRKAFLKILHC

**Q.** For `CC(C)C[C@H](NC(=O)[C@@H]1CCCN1)C(=O)NCC(N)=O` (H-Pro-Leu-Gly-NH2), which Activity is on record?
**A.** inactive

**Q.** With `NC(=O)CN1CC[C@@H](NC(=O)[C@@H]2CCCN2)C1=O` as the molecule, how does the Activity read?
**A.** inactive

These molecules were tested against D(2) dopamine receptor (Bos taurus) (UniProt P20288) (assay: Stimulation of [3H]NPA binding to dopamine D2 receptor in bovine striatal membranes). Conditions: Striatum, Membrane.
Type: cell membranes

**Q.** How did the Activity turn out when `[N-]=[N+]=Nc1ccc(C(=O)N[C@H]2CN[C@H](C(=O)N[C@@H]3CCN(CC(N)=O)C3=O)C2)cc1` was run?
**A.** Active

**Q.** Which Activity does the source give for `[N-]=[N+]=Nc1ccc(C(=O)NCCNC(=O)CN2CC[C@@H](NC(=O)[C@@H]3CCCN3)C2=O)c(O)c1` here?
**A.** Active

**Q.** How did the Activity turn out when `CC(C)C[C@H](NC(=O)[C@@H]1CCCN1)C(=O)NCC(N)=O` (H-Pro-Leu-Gly-NH2) was run?
**A.** 24.5%

**Q.** `[N-]=[N+]=Nc1cc(O)c(C(=O)N[C@@H]2CN[C@H](C(=O)N[C@@H]3CCN(CC(N)=O)C3=O)C2)cc1I` was tested. Which Activity did it give?
**A.** Active

**Q.** `NC(=O)CN1CC[C@@H](NC(=O)[C@@H]2CCCN2)C1=O` was tested. Which Activity did it give?
**A.** 51.1%

**Q.** Which Activity does the source give for `[N-]=[N+]=Nc1ccc(C(=O)N[C@H]2CN[C@H](C(=O)N[C@@H]3CCN(CC(N)=O)C3=O)C2)c(O)c1` here?
**A.** Active

**Q.** `[N-]=[N+]=Nc1ccc(C(=O)N[C@@H]2CN[C@H](C(=O)N[C@@H]3CCN(CC(N)=O)C3=O)C2)c(O)c1` was tested. Which Activity did it give?
**A.** Active

**Q.** With `[N-]=[N+]=Nc1ccc(C(=O)N[C@@H]2CN[C@H](C(=O)N[C@@H]3CCN(CC(N)=O)C3=O)C2)cc1` as the molecule, how does the Activity read?
**A.** Active

**Q.** Which Activity does the source give for `[N-]=[N+]=Nc1ccc(C(=O)NCCNC(=O)CN2CC[C@@H](NC(=O)[C@@H]3CCCN3)C2=O)cc1` here?
**A.** Active

**Q.** With `[N-]=[N+]=Nc1cc(O)c(C(=O)NCCNC(=O)CN2CC[C@@H](NC(=O)[C@@H]3CCCN3)C2=O)cc1I` as the molecule, how does the Activity read?
**A.** Active
